Data reported in US9849186B2, “Triblock copolymer and use therefor” (priority 2012, dated 2017).

How the values were obtained:
[1] = test system: myeloperoxidase (MPO) activity; assay: Carrageenan-induced arthritis model: MPO activity as marker of neutrophil infiltration; format: in vivo, mice; conditions: 50 μl s.c. right hind paw; 5% carrageenan 18 hours later; measured 6 hours after carrageenan
Method: Five mice (n=5) were used in each of 9 groups (Control, RIG, nRIG, Saline@Carr, RIG@Carr, nRIG@Carr, 4-amino-TEMPO@Carr, RNP^N@Carr, nRIG+4-amino-TEMPO@Carr).
50 μl each of nitroxide radical-containing polyion complex micelles for forming an RIG gel (RIG; molar ratio r=1:1, pH 6, 60 mg/ml), nitroxide radical-free polyion complex micelles for forming an nRIG gel (nRIG; molar ratio r=1:1, pH 6, 60 mg/ml), saline, a low-molecular-weight nitroxide radical compound solution (4-aminoTEMPO; 5.45 mg/ml), a nitroxide radical-containing polymer micelle solution (RNP^N; 60 mg/ml), and a solution of low-molecular-weight 4-aminoTEMPO physically mixed with nitroxide radical-free polyion complex micelles (n-RIG+4-aminoTEMPO; molar ratio r=1:1, pH 6, 60 mg/ml) was then injected subcutaneously into the right hind paws of mice. 18 hours later, 50 μl of 5% carrageenan buffer was injected subcutaneously into the right hind paws of the mice in the Saline@Carr, RIG@Carr, nRIG@Carr, 4-amino-TEMPO@Carr, RNP^N@Carr, and nRIG+4-aminoTEMPO@Carr groups (n=5). Nothing was administered to the Control group (n=5). […] The collected tissue of the mouse right hind paws was then homogenized, and the amount of inflammatory cytokines (TNF-α and IL-1β) and myeloperoxidase (MPO) activity as a marker of neutrophil infiltration were measured with an ELISA kit in the supernatant collected by centrifugation.

[2] = Local retention of injectable gel, imaging by L-band electron spin resonance; conditions: 70 μl s.c. into hind paw
Method: Three mice were used in each group. 70 μl of a solution of the nitroxide radical-containing polyion complex micelles used in Test 1 (PMNT-b-PEG-b-PMNT to PAA molar ratio r=1:1 (RIG). pH 6, 60 mg/ml) was injected subcutaneously into the left hind paws of three mice. […] Local retention of nitroxide radicals in the mouse paws was imaged by L-band electron spin resonance (ESR) using mice immediately after administration.

With `CC1(C)CC(N)CC(C)(C)N1[O]` [4-aminoTEMPO, 4-amino-TEMPO] the “suppression of MPO activity caused by carrageenan” value [1] was “not significantly suppressed” and the “time after administration at which ESR signal disappeared from mouse paws” value [2] was at most 30 min.
